Measurements from patent US7838534B2, “Quinuclidine derivatives as M3 antagonists” (Chiesi Farmaceutici S.p.A., priority 2006, dated 2010).

Experiment: lung retention after intratracheal administration (lung homogenate, plasma)
Format: in vivo
Conditions: guinea pig lung; for C48L/C0.5L (amount in the lung 48 hours vs 0.5 hours after administration): intratracheal administration
Source text: MRTL and […]/C0.5L (%) are two meaningful and predictive parameters of the duration of a drug's effect after single dose pulmonary administration.

| MRT (lung homogenate, inhaled or intranasal, intratracheal 10 nmol/kg, read-out: MRTL (Mean Residence Time in the Lung)) [h] | Compound | C48L/C0.5L (amount in the lung 48 hours vs 0.5 hours after administration) [%] |
| --- | --- | --- |
| 7.1 | C[N+]1(C)[C@@H]2C[C@@H](OC(=O)C(O)(c3cccs3)c3cccs3)C[C@H]1[C@@H]1O[C@@H]12 [tiotropium bromide] | 2.3 |
| – | CC(C)[N+]1(C)[C@@H]2CC[C@H]1CC(OC(=O)C(CO)c1ccccc1)C2.[Br-] (stereo partly drawn) [ipratropium bromide] | 0.3 |
